# Assay results from patent US6005007A, “Retinoids, methods for their production and use” (priority 1997, dated 1999).
# What was measured:
# RXRβ [1] = target: T1, RXRβ (Mus musculus, UniProt P28704); assay: Co-transfection assay, RXRβ agonist activity; format: cell-based; settings: CV-1 cells, luciferase reporter, read-out: RXRβ Pot
# T1 sequence (P28704 1-520): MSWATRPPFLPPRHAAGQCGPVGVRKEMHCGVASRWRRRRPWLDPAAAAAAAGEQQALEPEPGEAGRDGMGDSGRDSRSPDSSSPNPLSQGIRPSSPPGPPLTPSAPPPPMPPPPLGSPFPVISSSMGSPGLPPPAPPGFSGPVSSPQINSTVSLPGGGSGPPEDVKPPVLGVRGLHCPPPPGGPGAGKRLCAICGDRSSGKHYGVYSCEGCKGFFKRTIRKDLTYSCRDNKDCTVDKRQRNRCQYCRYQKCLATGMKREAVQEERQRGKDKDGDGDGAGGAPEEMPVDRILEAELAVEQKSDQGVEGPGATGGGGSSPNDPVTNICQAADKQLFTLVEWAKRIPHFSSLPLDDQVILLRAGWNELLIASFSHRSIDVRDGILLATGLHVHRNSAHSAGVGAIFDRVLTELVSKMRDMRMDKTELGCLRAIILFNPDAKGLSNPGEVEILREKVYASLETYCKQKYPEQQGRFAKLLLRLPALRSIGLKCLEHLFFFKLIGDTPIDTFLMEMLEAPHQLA
# RARγ = target: T2, RARγ (Homo sapiens, UniProt P13631); assay: Receptor binding, RARγ; settings: tritiated retinoid competition
# T2 sequence (P13631 1-454): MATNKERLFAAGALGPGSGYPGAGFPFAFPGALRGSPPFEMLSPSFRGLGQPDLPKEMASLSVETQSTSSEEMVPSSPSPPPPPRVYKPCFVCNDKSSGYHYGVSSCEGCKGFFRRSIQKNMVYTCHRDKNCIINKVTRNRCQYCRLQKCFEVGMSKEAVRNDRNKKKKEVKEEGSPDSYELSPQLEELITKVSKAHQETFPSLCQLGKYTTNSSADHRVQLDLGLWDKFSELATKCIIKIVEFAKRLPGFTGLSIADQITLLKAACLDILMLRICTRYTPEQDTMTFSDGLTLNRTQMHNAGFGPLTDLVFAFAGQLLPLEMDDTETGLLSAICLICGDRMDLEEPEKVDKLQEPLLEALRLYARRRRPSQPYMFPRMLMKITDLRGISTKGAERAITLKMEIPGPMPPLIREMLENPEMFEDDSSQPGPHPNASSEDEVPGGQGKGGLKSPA
# ME 180 = assay: Incorporation of 3H-thymidine, ME 180; format: cell-based; settings: Homo sapiens, ME-180; 96 hours incubation, then 6 hours 3H-thymidine; read-out: TdR IC50 ME 180
# RPMI 8226 = assay: Incorporation of 3H-thymidine, RPMI 8226; format: cell-based; settings: Homo sapiens, 96 hours incubation, then 6 hours 3H-thymidine, read-out: TdR IC50 RPMI 8226
# AML-193 = assay: Incorporation of 3H-thymidine, AML-193; settings: Homo sapiens, read-out: TdR IC50 AML-193 (nM)
# RXRβ [2] = target: T1, RXRβ; assay: Receptor binding, RXRβ; settings: tritiated retinoid competition
# RAR receptors = assay: Co-transfection assay, RAR subfamily (summary in words); format: cell-based; settings: CV-1 cells
# Procedure: Utilizing the "cis-trans" or "co-transfection" assay described by Evans et al., Science, 240:889-95 (May 13, 1988), the disclosure of which is herein incorporated by reference, the retinoid compounds of the present invention were tested and found to have strong, specific activity as either selective RXR agonists, or as pan-agonist activators of both RAR and RXR receptors. This assay is described in further detail in U.S. Pat. Nos. 4,981,784 and 5,071,773, the disclosures of which are incorporated herein by reference.
# In the co-transfection assay, a cloned cDNA for an IR (e.g., human RARα, RARβ, RXRγ) under the control of a constitutive promoter (e.g., the SV 40 promoter) is introduced by transfection (a procedure to induce cells to take up foreign genes) into a background cell substantially devoid of endogenous IRs. This introduced gene directs the recipient cells to make the IR protein of interest. A second gene is also introduced (co-transfected) into the same cells in conjunction with the IR gene. […]
# The co-transfection assay can detect small molecule agonists or antagonists of target IRs. […] This activity can be conveniently measured, e.g., by increasing luciferase production, which reflects compound-dependent, IR-mediated increases in reporter transcription. […]
EC50 (RXRβ [1]) [nM],Kd (RARγ) [nM],IC50 (ME 180) [nM],IC50 (RPMI 8226) [nM],IC50 (AML-193) [nM],Kd (RXRβ [2]) [nM],activity for the RAR receptors (RAR receptors),SMILES
6,552,0.9,< 0.1,< 0.1,6,–,"CC(/C=C/CC1(c2ccc3c(c2)C(C)(C)CCC3(C)C)CC1)=C\C(=O)O [Compound 101, (2E, 4E)-6-[1-(5,5,8,8-Tetramethyl-5,6,7,8-tetrahydronaphtha-len-2-yl)cyclopropanyl]-3-methyl hexadienoic acid]"
22,> 5000,–,–,–,15,no activity at all,"CC(/C=C/CC1(c2cc(C(C)(C)C)cc3c2CCC3(C)C)CC1)=C\C(=O)O [Compound 107, (2E, 4E)-6-[1-(6-t-butyl-1,1-dimethyl-indan-4-yl)-cyclopropyl]-3-methyl hexadienoic acid]"
–,> 5000,–,–,–,357,no activity at all,"CC(/C=C/CC1(c2ccc3c(c2)C(C)(C)CCC3(C)C)CCCC1)=C\C(=O)O [Compound 108, (2E, 4E)-6-[(5,5,8,8-Tetramethyl-5,6,7,8-tetrahydronaphtha-len-2-yl)cyclopentane-1-yl]-3-methyl hexadienoic acid]"
